Laboratory results published in patent US20040077615A1, “Novel formulations for administering therapeutic lipophilic molecules” (priority 2000, published 2004).

Details: subcutaneous 5 mg in sesame oil vs rectal 15 mg (Diastat); plasma over 8 hours; FIG. 1

Compound: CN1C(=O)CN=C(c2ccccc2)c2cc(Cl)ccc21 [diazepam]
- rise of levels in blood, subcutaneous delivery compared with rectal delivery: rise more quickly than via rectal delivery
